Measurements published in patent publication EP0542609B1, “3-sulfonylamino-2-(1H)-quinolinones and 7-aza derivatives as excitatory amino acids antagonists” (ADIR ET COMPAGNIE, priority 1991, dated 1993).

Assays:
récepteur AMPA [1] = assay: Membrane binding (3H-AMPA), rat cortex homogenate; settings: binding to AMPA receptor, rat cortex membranes, 4°C, 30 min
Method: Il est réalisé à partir d'un homogénat de cortex de Rat. Le culot membranaire est classiquement préparé dans un tampon saccharose par centrifugations différentielles puis congelé jusqu'à utilisation. Après décongélation, 200 µl d'homogénat de membranes sont repris dans un tampon Tris HCl (30 mM), CaCl₂ (2,5 mM), pH 7,4 et incubés à 4°C pendant 30 minutes en présence de 25 µl de ³H-AMPA ou de ³H-Kainate et de 25 µl du produit à tester. La liaison non-spécifique est déterminée en présence de 10 µM de quisqualate (binding AMPA) ou de 10 µM d'acide kainique (binding kainate). Les membranes sont ensuite isolées par filtration. Après séchage des filtres, la radioactivité est mesurée par scintillation.

récepteur AMPA [2] = assay: AMPA-induced currents in Xenopus oocytes injected with rat cerebral cortex mRNA (two-electrode voltage clamp); type: cell-based; settings: for Ki: Xenopus oocyte, AMPA 30 µM, -60 mV, read-out: Courant AMPA Ki; for Oocyte de Xenopus Ki AMPA/Ki NMDA/Gly: ratio of Ki on AMPA current to Ki on NMDA/Gly current
Method: (§1) Des oocytes de Xenopus sont injectés de 50 ng d'ARNm poly (A^+) isolés de cortex cérébral de Rat et incubés 2 à 3 Jours à 18°C pour en permettre l'expression protéique. Les courants entrants induits par les AAE sont mesurés dans un milieu de composition : NaCl (82,5 mM), KCl (2,5 mM), CaCl₂ (1 mM), MgCl₂ (1 mM), NaH₂PO₄ (1 mM), HEPES (5 mM), pH 7,4 par la méthode du Voltage-clamp à 2 électrodes (potentiel = - 60 mV). Pour la mesure des courants induits par le NMDA et la glycine, MgCl₂ est absent du milieu et le CaCl₂ est amené à la concentration de 2 mM. Les agonistes AAE induisant les courants sont utilisés aux concentrations suivantes : kainate : 100 µM; AMPA : 30 µM; glycine/NMDA : 3/30 µM. Le produit étudié est appliqué 30 secondes avant et durant l'application de l'agoniste.

récepteurs AMPA/Kainate = assay: Hippocampal EPSP induced by AMPA/Kainate receptor activation (rat hippocampal slices, Schäffer collaterals stimulation); type: cell-based; settings: for IC50: rat hippocampal slices, CA1, in presence of Mg++ (blocks NMDA receptors), read-out: IC50 (inhibition des EPSP hippocampiques induits par l'activation des récepteurs AMPA/Kainate); for EPSP hippocampique IC50 AMPA-Kainate/IC50 NMDA-Glycine: ratio of IC50 on AMPA-Kainate EPSP to IC50 on NMDA-Glycine EPSP
Method: Des coupes transversales (500 µm) d'hippocampe de Rat sont placées dans un milieu de composition : NaCl (120 mM), KCl (5 mM), CaCl₂ (1 mM), MgSO₄ (1 mM), KH₂PO₄ (1,3 mM), NaHCO₃ (20 mM), HEPES (10 mM), glucose (10 mM), pH 7,35. Les "EPSP" sont enregistrés dans le champ dendritique de la région CA1 lors de stimulations toutes les 30 secondes de la stratum radiatum (50-100 µA, 20 µs). Les EPSP sont évalués au maximum de l'onde négative. Le produit étudié est appliqué durant 10 minutes.

récepteur kainate = assay: Kainate-induced currents in Xenopus oocytes injected with rat cerebral cortex mRNA (two-electrode voltage clamp); type: cell-based; settings: Xenopus oocyte, kainate 100 µM, -60 mV; read-out: Courant Kainate IC50
Method: as §1

| SMILES | Ki (récepteur AMPA [1]) [nM] | Ki (récepteur AMPA [2]) [nM] | Oocyte de Xenopus Ki AMPA/Ki NMDA/Gly (récepteur AMPA [2]) | IC50 (récepteurs AMPA/Kainate) [nM] | EPSP hippocampique IC50 AMPA-Kainate/IC50 NMDA-Glycine (récepteurs AMPA/Kainate) | IC50 (récepteur kainate) [nM] |
| --- | --- | --- | --- | --- | --- | --- |
| O=c1[nH]c2cc([N+](=O)[O-])ccc2cc1NS(=O)(=O)C(F)(F)F [Exemple 2, 7-Nitro-3-(trifluorométhylsulfonylamino)-2-(1H)-quinoléinone] | 600 | 370 | 0,60 | 10000 | 0,25 | 500 |
| NS(=O)(=O)c1cccc2c3c(cc([N+](=O)[O-])c12)=NC(=O)C(=O)N=3 [NBQX, 6-nitro-7-sulfamoylbenzo[f]quinoxaline-2,3-dione] | – | 60 | << 0,001 | 1000 | << 0,001 | 60 |
| N#Cc1cc2c(cc1[N+](=O)[O-])=NC(=O)C(=O)N=2 [CNQX, 6-cyano-7-nitroquinoxaline-2,3-dione] | 70 | 400 | 0,19 | 2900 | 0,03 | 270 |
